Assay results taken from patent publication US8802597B2, “Herbicidal pyrimidines” (E I du Pont de Nemours and Company, priority 2003, dated 2014).
Like-named read-outs stand apart in the source and are kept apart here.

How the values were obtained:
Test in all cases: Test C pre/postemergence
Format in all cases: in vivo
[1] = tested on: common (oilseed) sunflower (Helianthus annuus); settings: Helianthus annuus, pre-emergence, Preemergence, read-out: Plant response rating, Sunflower
How it was run: (§1)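 Visual injury ratings, 0 (no effect) to 100 (complete control), made 12 to 14 days after treatment by comparison with untreated controls. Greenhouse plants received test chemical in a surfactant-containing non-phytotoxic solvent, either preemergence on planted seeds or postemergence at the 1- to 4-leaf stage.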

[2] = tested on: morningglory (Ipomoea coccinea); settings: Ipomoea; for pest or weed control at 62 g/ha: 62 g ai/ha; for pest or weed control at 125 g/ha: 125 g ai/ha; for pest or weed control at 250 g/ha: 250 g ai/ha; for pest or weed control at 500 g/ha: 500 g ai/ha
How it was run: as §1

[3] = tested on: cocklebur (Xanthium strumarium); settings: Xanthium strumarium; for pest or weed control at 62 g/ha: 62 g ai/ha; for pest or weed control at 125 g/ha: 125 g ai/ha; for pest or weed control at 250 g/ha: 250 g ai/ha; for pest or weed control at 500 g/ha: 500 g ai/ha
How it was run: as §1

[4] = tested on: velvetleaf (Abutilon theophrasti); settings: Abutilon theophrasti; for pest or weed control at 62 g/ha: 62 g ai/ha; for pest or weed control at 125 g/ha: 125 g ai/ha; for pest or weed control at 250 g/ha: 250 g ai/ha; for pest or weed control at 500 g/ha: 500 g ai/ha
How it was run: as §1

[5] = tested on: giant foxtail (Setaria faberii); settings: Setaria faberi; for pest or weed control at 125 g/ha: 125 g ai/ha; for pest or weed control at 500 g/ha: 500 g ai/ha; for pest or weed control at 62 g/ha: 62 g ai/ha; for pest or weed control at 250 g/ha: 250 g ai/ha
How it was run: as §1

[6] = tested on: common ragweed (Ambrosia elatior); settings: Ambrosia artemisiifolia; for pest or weed control at 62 g/ha: 62 g ai/ha; for pest or weed control at 125 g/ha: 125 g ai/ha; for pest or weed control at 250 g/ha: 250 g ai/ha; for pest or weed control at 500 g/ha: 500 g ai/ha
How it was run: as §1

[7] = post-emergence, Postemergence, scale 0 to 100 (0 no effect, 100 complete control), read-out: Morningglory plant response rating
[8] = post-emergence, Postemergence, scale 0 to 100, read-out: Plant response rating, Morningglory
[9] = pre-emergence, Preemergence, scale 0 to 100, read-out: Plant response rating, Morningglory
[10] = post-emergence, Postemergence, scale 0 to 100 (0 no effect, 100 complete control), read-out: Cocklebur plant response rating
[11] = post-emergence, Postemergence, scale 0 to 100, read-out: Plant response rating, Cocklebur
[12] = pre-emergence, Preemergence, scale 0 to 100, read-out: Plant response rating, Cocklebur
[13] = post-emergence, Postemergence, scale 0 to 100 (0 no effect, 100 complete control), read-out: Velvetleaf plant response rating
[14] = post-emergence, Postemergence, scale 0 to 100, read-out: Plant response rating, Velvetleaf
[15] = pre-emergence, Preemergence, scale 0 to 100, read-out: Plant response rating, Velvetleaf
[16] = post-emergence, Postemergence, scale 0 to 100 (0 no effect, 100 complete control), read-out: Foxtail, Giant plant response rating
[17] = post-emergence, Postemergence, scale 0 to 100, read-out: Plant response rating, Foxtail, Giant
[18] = pre-emergence, Preemergence, scale 0 to 100, read-out: Plant response rating, Foxtail, Giant
[19] = post-emergence, Postemergence, scale 0 to 100 (0 no effect, 100 complete control), read-out: Ragweed plant response rating
[20] = post-emergence, Postemergence, scale 0 to 100, read-out: Plant response rating, Ragweed
[21] = pre-emergence, Preemergence, scale 0 to 100, read-out: Plant response rating, Ragweed

CCOC(=O)c1nc(C2CC2)nc(N)c1Br [Compound 1, ethyl 6-amino-5-bromo-2-cyclopropyl-4-pyrimidinecarboxylate]
30%: pest or weed control at 125 g/ha [5, 18]
100%: pest or weed control at 125 g/ha ([1]; 125 g ai/ha, scale 0 to 100) | pest or weed control at 250 g/ha ([1]; 250 g ai/ha, scale 0 to 100) | pest or weed control at 500 g/ha ([1]; 500 g ai/ha, scale 0 to 100) | pest or weed control at 62 g/ha [2, 7] | pest or weed control at 125 g/ha [2, 7] | pest or weed control at 250 g/ha [2, 8] | pest or weed control at 500 g/ha [2, 8] | pest or weed control at 125 g/ha [2, 9] | pest or weed control at 250 g/ha [2, 9] | pest or weed control at 500 g/ha [2, 9] | pest or weed control at 125 g/ha [3, 10] | pest or weed control at 250 g/ha [3, 11] | pest or weed control at 500 g/ha [3, 11] | pest or weed control at 125 g/ha [3, 12] | pest or weed control at 250 g/ha [3, 12] | pest or weed control at 500 g/ha [3, 12] | pest or weed control at 250 g/ha [4, 14] | pest or weed control at 500 g/ha [4, 14] | pest or weed control at 500 g/ha [4, 15] | pest or weed control at 62 g/ha [6, 19] | pest or weed control at 125 g/ha [6, 19] | pest or weed control at 250 g/ha [6, 20] | pest or weed control at 500 g/ha [6, 20] | pest or weed control at 125 g/ha [6, 21] | pest or weed control at 250 g/ha [6, 21] | pest or weed control at 500 g/ha [6, 21]
80%: pest or weed control at 62 g/ha ([1]; 62 g ai/ha, scale 0 to 100, 0 no effect, 100 complete control) | pest or weed control at 62 g/ha ([4]; pre-emergence, Preemergence, scale 0 to 100, 0 no effect, 100 complete control, read-out: Plant response rating, Velvetleaf) | pest or weed control at 250 g/ha [5, 17]
65%: pest or weed control at 125 g/ha [5, 16]
0%: pest or weed control at 62 g/ha ([5]; pre-emergence, Preemergence, scale 0 to 100, 0 no effect, 100 complete control, read-out: Plant response rating, Foxtail, Giant)
90%: pest or weed control at 62 g/ha ([2]; pre-emergence, Preemergence, scale 0 to 100, 0 no effect, 100 complete control, read-out: Plant response rating, Morningglory) | pest or weed control at 62 g/ha [3, 10] | pest or weed control at 62 g/ha ([3]; pre-emergence, Preemergence, scale 0 to 100, 0 no effect, 100 complete control, read-out: Plant response rating, Cocklebur) | pest or weed control at 125 g/ha [4, 13] | pest or weed control at 125 g/ha [4, 15] | pest or weed control at 500 g/ha [5, 17] | pest or weed control at 250 g/ha [5, 18] | pest or weed control at 500 g/ha [5, 18]
95%: pest or weed control at 250 g/ha [4, 15] | pest or weed control at 62 g/ha ([6]; pre-emergence, Preemergence, scale 0 to 100, 0 no effect, 100 complete control, read-out: Plant response rating, Ragweed)
40%: pest or weed control at 62 g/ha [5, 16]
85%: pest or weed control at 62 g/ha [4, 13]
